Literature values, collected in US12324811B2, “Intranasal formulation” (CIPLA LIMITED, priority 2018, dated 2025).

Columns and labels:
[1] = active metabolite
[2] = oral administration
[3] = intranasally administered, children and adults

| Compound | contribution to biological activity of midazolam [1] | drug reaching the bloodstream [2] | onset of action [3] |
| --- | --- | --- | --- |
| OCc1ncc2n1-c1ccc(Cl)cc1C(c1ccccc1F)=NC2 [alpha1-hydroxymidazolam] | 10% | – | – |
| Midazolam | – | 50% | about 10 minutes |
